According to PMC7503370, “Cellular Signaling and Anti-Apoptotic Effects of Prolactin-Releasing Peptide and Its Analog on SH-SY5Y Cells” (International Journal of Molecular Sciences, 2020):
Numbered stars: 1 amine (or outer) side, 2 acyl side, 3 side chain; on linkers, the order of the positions; unused ones are H or OH. Side chains are listed from the residue outwards. Peptide text beside a SMILES is read from it. * marks the point of attachment. γGlu = O=C(O)[C@H](CCC(=O)[*:2])N[*:1]; Palmitoyl = CCCCCCCCCCCCCCCC(=O)*

Tests used:
Format in all cases: cell-based, human
[1] = tested on: Tau protein phosphorylation in SH-SY5Y cells; assay: Western blotting of Tau phosphorylation in MG-stressed cells; details: 4 h pretreatment 1 × 10^−5 M, then 0.6 mM MG 16 h, vs MG; for attenuation of MG-increased Tau phosphorylation at Ser396: normalized to GAPDH
Protocol: Figure 8 PrRP31 and palm^11-PrRP31 attenuate Tau hyperphosphorylation at the epitope Ser396 in SH-SY5Y. Immunoblots with: (a) and their quantifications: (b). SH-SY5Y cells were pretreated with PrRP31 and palm^11-PrRP31 at a concentration of 1 × 10^−5 M for 4 h and then stressed with 0.6 mM MG for 16 h. Activation was expressed as the ratio of the activated protein to the total amount of the protein, both normalized to loading control, GAPDH. Data are presented as the means ± SEM as a percentage of control cells treated with medium alone. Analysis is made vs. MG by a Student’s t-test, * p < 0.5, ** p < 0.01 (each sample replicate in triplicate).
(§1) For the investigation of the molecular mechanism of PrRP31 and its analog in the cells, signaling pathways were studied by Western blotting (WB). The cells were cultured in 6-well plates at a density of 800,000 cells per well. Growth medium was exchanged for serum-free DMEM 16 h before an experiment, and then, the cells were incubated with PrRP31, palm^11-PrRP31, or scrambled peptide at a final concentration of 1 × 10^−5 M or insulin at a concentration of 1 × 10^−7 M at 37 °C for 8 min. The cells were rapidly cooled on ice and lysed in 400 µl of Laemmli sample buffer (62.5 mM Tris-HCl with pH 6.8, 2% SDS, 10% glycerol, 0.01% bromophenol blue, 5% mercaptoethanol, 50 mM NaF, and 1 mM Na3VO4) and stored at −20 °C. Afterward, the cell lysates were analyzed by WB. SDS-electrophoresis and WB were carried out using a Criterion system with a 26-well 4−15% Criterion^TM TGX^TM Precast Midi Protein Gel (Bio-Rad, Hercules, CA, USA) at a constant voltage of 200 V or 100 V, respectively.
(§2) Subsequently, the membranes were incubated overnight with primary antibody (Ab) at 4 °C, according to the manufacturer´s instructions (Table 2). The next day, the membranes were incubated with an HRP-linked secondary antibody for 1 h at room temperature. Chemiluminescence was visualized with a ChemiDoc^TM System (Bio-Rad). Band intensities were normalized using glyceraldehyde 3-phosphate dehydrogenase (GAPDH) as an internal loading control.
For analysis of the molecular mechanism during MG stress, the growth medium was exchanged for serum-free DMEM 16 h before the experiment. The cells were pretreated with 1 × 10^−5 M PrRP31 or palm^11-PrRP31 for 4 h; then, MG was added to a final concentration of 0.6 mM, and the cells were incubated at 37 °C for 16 h. The controls and compounds were tested in triplicate.

[2] = tested on: p-m-Tor, p-GSK-3β, p-ERK, p-CREB in SH-SY5Y cells; assay: Western blotting with selective inhibitors of signaling pathways; details: insulin 1 × 10^−7 M, 37 °C, 8 min; for p-CREB after incubation with peptide, no inhibitor / p-ERK after incubation with peptide, no inhibitor / p-m-Tor (Ser2448) after application of peptide, no inhibitor: PrRP31 and palm^11-PrRP31 1 × 10^−5 M
Protocol: Immunoblots with PrRP31 and palm^11-PrRP31: (a) and insulin: (b) and their quantifications: (c). SH-SY5Y cells were incubated firstly with selective inhibitors for 2 min and then either with PrRP31 and its palmitoylated analog at a final concentration 1 × 10^−5 M, or with insulin in the final concentration 1 × 10^−7 M at 37 °C for 8 min, or alone in serum-free medium. Activated protein was normalized to loading control, GAPDH. Data are presented as the means ± SEM as a percentage of control cells treated with medium alone. Analysis is made between groups as shown in the graph by a Student’s t-test, * p < 0.5, ** p < 0.01, *** p < 0.001(each sample in triplicates).
(§3) Eight minutes of incubation was performed in a series of experiments with different exposure times (5, 10, 15, 30, and 60 min) to PrRP31 and its palmitoylated analog. Activation of analogs was strongest after 10 min. Then, the cells were treated with inhibitors of signaling pathways for 2 min, and analogs were added for 8 min. The time of exposure was set to 8 min to ensure that the incubation time for PrRP31 and its palmitoylated analog was the same. The controls and compounds were tested in triplicate in three independent experiments. The PI3K/Akt pathway is one of the main signaling pathways of insulin; therefore, insulin was used as a positive control. Scrambled peptide was used as a negative control. Activation is expressed as the ratio of the activated protein to the total amount of the protein. GAPDH was used as a loading control.
For further research, inhibitors of signaling pathways were used. The growth medium was exchanged for serum-free DMEM 16 h before the experiment. On the day of the experiment, cells were incubated for 2 min with rapamycin, SB216736 or U0126 at a final concentration of 1 × 10^−6 M; then, PrRP31, palm^11-PrRP31 or scrambled peptide at a final concentration of 1 × 10^−5 M or insulin at a concentration of 1 × 10^−7 M was added for 8 min. The plates were stored at 37 °C. The controls and compounds were tested in triplicate.

[3] = tested on: PI3K/Akt signaling pathway in SH-SY5Y cells; assay: Western blotting of PI3K/Akt signaling pathway after 8 min incubation; details: 1 × 10^-5 M, 37 °C, vs control cells (medium alone), normalized to GAPDH, n = 3, triplicates
Protocol: Figure 1 Prolactin-releasing peptide 31 (PrRP31) and palm^11-PrRP31 increased phosphoinositide-3 kinase (PI3K/Akt) signaling pathway in SH-SY5Y cells. Immunoblots: (a) and their quantifications: (b). SH-SY5Y cells were incubated either with PrRP31 and its palmitoylated analog and scrambled at a final concentration 1 × 10^-5 M, or with insulin at the final concentration 1 × 10^−7 M at 37 °C for 8 min, or medium alone (control). Activation was expressed as the ratio of the activated protein to the total amount of the protein, both normalized to loading control, glyceraldehyde 3-phosphate dehydrogenase (GAPDH). Data are presented as the means ± SEM as a percentage of control cells analyzed by one-way ANOVA followed by the Dunnett post hoc test, * p < 0.5, ** p < 0.01, **** p < 0.0001 (n = 3, each sample in triplicates).
as §1, §2, §3

[4] = normalized to GAPDH, triplicates

Row | SMILES | Tau phosphorylation at Ser198/199/202 (Tau 1)/Tau 5 induced by MG, effect of pretreatment [1] | attenuation of MG-increased Tau phosphorylation at Ser396 ([1]; triplicates) [%] | p-CREB after incubation with peptide, no inhibitor [2] | p-ERK after incubation with peptide, no inhibitor [2] | p-m-Tor (Ser2448) after application of peptide, no inhibitor [2, 4] | increase of the level of p-Akt (Ser473)/Akt [3] [%] | increase of the level of p-GSK3β (inhibitory Ser9)/GSK3β [3] [%] | increase of the level of p-m-Tor (Ser2448)/m-Tor [3] [%] | increase in unphosphorylated Tau (Tau 1 antibody, Ser198/199/202)/Tau 5 ([1]; triplicates) [%] | p-GSK-3β (Ser9) after incubation with peptide, no inhibitor ([2]; palm^11-PrRP31 1 × 10^−5 M, normalized to GAPDH, triplicates) | increase of the level of p-Akt (Thr308)/Akt [3] [%] | increase of the level of p-PDK1 (Ser241)/PDK1 [3] [%]
1 | CC[C@H](C)[C@H](NC(=O)CNC(=O)[C@H](CCCNC(=N)N)NC(=O)[C@H](CO)NC(=O)[C@H](C)NC(=O)[C@H](Cc1ccc(O)cc1)NC(=O)[C@H](Cc1c[nH]c2ccccc12)NC(=O)[C@H](C)NC(=O)[C@@H]1CCCN1C(=O)[C@H](CC(N)=O)NC(=O)[C@@H](NC(=O)[C@H](CC(=O)O)NC(=O)[C@@H]1CCCN1C(=O)[C@@H](NC(=O)[C@H](CCCNC(=N)N)NC(=O)[C@@H](NC(=O)[C@H](CCC(=O)O)NC(=O)[C@H](CCSC)NC(=O)[C@H](CO)NC(=O)[C@H](Cc1c[nH]cn1)NC(=O)[C@H](CCCNC(=N)N)NC(=O)[C@H](Cc1c[nH]cn1)NC(=O)[C@@H](NC(=O)[C@H](CCCNC(=N)N)NC(=O)[C@@H](N)CO)[C@@H](C)O)[C@@H](C)CC)[C@@H](C)O)[C@@H](C)CC)C(=O)N[C@@H](CCCNC(=N)N)C(=O)N1CCC[C@H]1C(=O)N[C@H](C(=O)NCC(=O)N[C@@H](CCCNC(=N)N)C(=O)N[C@@H](Cc1ccccc1)C(N)=O)C(C)C [PrRP31] | tended to decrease | 46 | increased | increased | significantly increased | 53 | 41 | 22 | – | – | – | –
2 | CCCCCCCCCCCCCCCC(=O)N[C@@H](CCC(=O)NCCCC[C@H](NC(=O)[C@@H](NC(=O)[C@H](CCC(=O)O)NC(=O)[C@H](CCSC)NC(=O)[C@H](CO)NC(=O)[C@H](Cc1c[nH]cn1)NC(=O)[C@H](CCCNC(=N)N)NC(=O)[C@H](Cc1c[nH]cn1)NC(=O)[C@@H](NC(=O)[C@H](CCCNC(=N)N)NC(=O)[C@@H](N)CO)[C@@H](C)O)[C@@H](C)CC)C(=O)N[C@H](C(=O)N1CCC[C@H]1C(=O)N[C@@H](CC(=O)O)C(=O)N[C@H](C(=O)N[C@@H](CC(N)=O)C(=O)N1CCC[C@H]1C(=O)N[C@@H](C)C(=O)N[C@@H](Cc1c[nH]c2ccccc12)C(=O)N[C@@H](Cc1ccc(O)cc1)C(=O)N[C@@H](C)C(=O)N[C@@H](CO)C(=O)N[C@@H](CCCNC(=N)N)C(=O)NCC(=O)N[C@H](C(=O)N[C@@H](CCCNC(=N)N)C(=O)N1CCC[C@H]1C(=O)N[C@H](C(=O)NCC(=O)N[C@@H](CCCNC(=N)N)C(=O)N[C@@H](Cc1ccccc1)C(N)=O)C(C)C)[C@@H](C)CC)[C@@H](C)CC)[C@@H](C)O)C(=O)O [palm^11-PrRP31] (H-SRTHRHSMEIK([γGlu-Palmitoyl])TPDINPAWYASRGIRPVGRF-NH2; N-terminus assumed) | – | 32 | increased | increased | significantly increased | 48 | 85 | 22 | 32 | slight increase | 36 | 20
